From PubChem BioAssay AID588480 (Broad Institute, 2011)
Where “and” joins values, the source holds several entries; their conditions need not be identical. Identical values can stand only once. Inconclusive results are not listed. Calls of active or inactive are those of the source.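 Rule for the calls: active = compounds whose fitted half-maximal concentration stays within ten times the top tested dose in every test run; inconclusive = runs disagree, or a flat partial drop or poor fit; inactive = every run inactive, including flat curves and signal rises.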

target: Serine/threonine-protein kinase 33 (Homo sapiens) (UniProt Q9BYT3); assay: inhibition of purified STK33 phosphorylating MBP – biochemical, ADP-Glo luminescence, dry powder, set 2, dose response (AID 588480); conditions: purified STK33, MBP phosphorylation
Sequence (Q9BYT3 whole entry, looked up): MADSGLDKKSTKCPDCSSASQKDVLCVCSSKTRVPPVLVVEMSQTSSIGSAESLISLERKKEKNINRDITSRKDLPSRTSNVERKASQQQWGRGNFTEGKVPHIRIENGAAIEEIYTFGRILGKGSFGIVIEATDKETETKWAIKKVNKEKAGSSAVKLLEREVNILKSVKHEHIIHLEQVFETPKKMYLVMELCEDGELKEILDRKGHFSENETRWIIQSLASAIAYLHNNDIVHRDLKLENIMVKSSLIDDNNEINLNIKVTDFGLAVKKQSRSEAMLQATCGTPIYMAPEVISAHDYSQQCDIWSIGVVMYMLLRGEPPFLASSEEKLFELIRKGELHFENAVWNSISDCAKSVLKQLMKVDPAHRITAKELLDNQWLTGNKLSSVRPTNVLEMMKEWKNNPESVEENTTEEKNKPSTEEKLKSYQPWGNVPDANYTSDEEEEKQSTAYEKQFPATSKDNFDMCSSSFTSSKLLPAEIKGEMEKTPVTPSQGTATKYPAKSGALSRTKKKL

**Q.** `O=C1NC(=NCc2ccccc2)S/C1=C/c1ccc(O)cc1` was tested. Which AC50 did it give?
**A.** The AC50 was 245 nM.

**Q.** With `COc1ccc(/C=C2\SC(=Nc3ccccc3OC)NC2=O)cc1` as the compound, how does the AC50 read?
**A.** The AC50 was 2250 nM.

**Q.** With `O=C(Nc1ccccc1-c1nc2ccccc2[nH]c1=O)c1cccc(Cl)c1` as the compound, how does the AC50 read?
**A.** Its AC50 is 709 nM.

**Q.** For `O=C(Nc1ccccc1-c1nc2ccccc2[nH]c1=O)c1ccncc1`, which AC50 is on record?
**A.** Its AC50 is 7690 nM.

**Q.** Which AC50 does the source give for `COc1cc(/C=C2\SC(=Nc3ccccc3OC)NC2=O)ccc1O` here?
**A.** The AC50 was 250 nM and 321 nM.

**Q.** With `COc1ccc(C(=O)Nc2ccccc2-c2nc3ccccc3[nH]c2=O)cc1` as the compound, how does the AC50 read?
**A.** The AC50 was 977 nM.

**Q.** Which AC50 does the source give for `O=C(Nc1ccccc1-c1nc2ccccc2[nH]c1=O)c1ccccn1` here?
**A.** Its AC50 is 76 nM.

**Q.** How did the AC50 turn out when `O=C(Nc1ccccc1-c1nc2ccccc2[nH]c1=O)c1cccs1` was run?
**A.** Its AC50 is 285 nM and 308 nM.

**Q.** `COc1cc(/C=C2\SC(=Nc3ccccc3OC)NC2=O)ccc1F` was tested. Which AC50 did it give?
**A.** Its AC50 is 9910 nM.

**Q.** For `O=C(Nc1ccccc1-c1nc2ccccc2[nH]c1=O)c1ccc(F)cc1`, which AC50 is on record?
**A.** Its AC50 is 152 nM.

**Q.** How did the AC50 turn out when `COc1ccccc1N=C1NC(=O)/C(=C/c2ccc3c(c2)OCCO3)S1` was run?
**A.** Its AC50 is 1280 nM.

**Q.** Which AC50 does the source give for `O=C(Nc1ccccc1-c1nc2ccccc2[nH]c1=O)c1cccnc1` here?
**A.** The AC50 was 582 nM.

**Q.** `COc1ccccc1N=C1NC(=O)/C(=C/c2ccc(O)cc2)S1` was tested. Which AC50 did it give?
**A.** The AC50 was 911 nM.

**Q.** How did the AC50 turn out when `COc1cc(/C=C2\SC(N)=NC2=O)ccc1O` was run?
**A.** Its AC50 is 466 nM.

**Q.** With `COc1ccccc1N=C1NC(=O)/C(=C/c2ccc3c(c2)OCO3)S1` as the compound, how does the AC50 read?
**A.** The AC50 was 5410 nM.

**Q.** Which AC50 does the source give for `O=C(Nc1ccccc1-c1nc2ccccc2[nH]c1=O)c1cc2ccccc2s1` here?
**A.** Its AC50 is 8510 nM.

**Q.** Which AC50 does the source give for `O=C(Nc1ccccc1-c1nc2ccccc2[nH]c1=O)c1cccc(F)c1` here?
**A.** The AC50 was 2430 nM.

same assay, conditions: purified STK33, MBP phosphorylation, at 10 µM (top of the series)

**Q.** For `Nc1ccccc1-c1nc2ccccc2[nH]c1=O`, which “activity change, negative = inhibition” value is on record?
**A.** The value was “inactive”.

**Q.** For `COc1ccccc1N=C1NC(=O)/C(=C/c2ccccn2)S1`, which “activity change, negative = inhibition” value is on record?
**A.** The value was “inactive”.

**Q.** For `COc1ccccc1N=C1NC(=O)/C(=C/C(C)C)S1`, which “activity change, negative = inhibition” value is on record?
**A.** The value was “inactive”.

**Q.** For `O=C(Nc1ccccc1-c1nc2ccccc2[nH]c1=O)C1CCCCC1`, which “activity change, negative = inhibition” value is on record?
**A.** The value was “inactive”.

**Q.** `COc1ccccc1N=C1NC(=O)/C(=C/c2ccc(OC(F)(F)F)cc2)S1` was tested. Which “activity change, negative = inhibition” value did it give?
**A.** Its value is “inactive”.

**Q.** `COc1ccccc1N=C1NC(=O)CS1` was tested. Which “activity change, negative = inhibition” value did it give?
**A.** The value was “inactive”.

**Q.** `COc1ccccc1N=C1NC(=O)/C(=C/c2cccn2C)S1` was tested. Which “activity change, negative = inhibition” value did it give?
**A.** Its value is “inactive”.

**Q.** `COc1ccccc1N=C1NC(=O)/C(=C/C2CCCCC2)S1` was tested. Which “activity change, negative = inhibition” value did it give?
**A.** The value was “inactive”.

**Q.** With `COc1ccccc1/C=C1\SC(=Nc2ccccc2OC)NC1=O` as the compound, how does the “activity change, negative = inhibition” value read?
**A.** The value was “inactive”.

**Q.** Which “activity change, negative = inhibition” value does the source give for `COc1ccccc1N=C1NC(=O)/C(=C/c2cccc(F)c2)S1` here?
**A.** The value was “inactive”.

**Q.** For `COc1ccccc1N=C1NC(=O)/C(=C/c2cc(C)on2)S1`, which “activity change, negative = inhibition” value is on record?
**A.** The value was “inactive”.

**Q.** For `COc1ccccc1Nc1nc(O)c(/C=C2/C=c3ccccc3=N2)s1`, which “activity change, negative = inhibition” value is on record?
**A.** Its value is “inactive”.

**Q.** With `COc1ccccc1N=C1NC(=O)/C(=C/c2cccc(Cl)c2)S1` as the compound, how does the “activity change, negative = inhibition” value read?
**A.** Its value is “inactive”.

**Q.** `O=c1[nH]c2ccccc2nc1-c1ccccc1NCc1cccs1` was tested. Which “activity change, negative = inhibition” value did it give?
**A.** Its value is “inactive”.
